Results as given in patent US20260165949A1, “COMPOSITION CONTAINING N-NONYLDEOXYNOJIRIMYCIN FOR SUPPRESSION, ALLEVIATION, PALLIATION, OR TREATMENT OF SKIN ITCHING” (CHA UNIVERSITY INDUSTRY-ACADEMIC COOPERATION FOUNDATION, priority 2022, published 2026).

Assays:
[1] = tested on: hepatic glycogenolysis; settings: in vivo; cited from earlier work
[2] = tested on: CCL22 release in HaCaT cells; test: CCL22 release induced by TNF-α/IFN-γ stimulation in HaCaT cells (ELISA); type: cell-based; settings: various concentrations; TNF-α and IFN-γ 10 ng/ml each, 24 hours; FIG. 6
Description: (§1) Epidermal cells (HaCaT cells) were purchased from Thermo Fisher Scientific (USA). HaCaT cells were cultured in a DMEM medium (Dulbecco's Modified Eagle's medium (high glucose), Hyclone, USA) containing 10% fetal bovine serum (FBS) and 1% penicillin/streptomycin at 37° C. in a 5% CO2 incubator.
(§2) In order to evaluate the inhibitory effects against IL-6, CCL17, and CCL22 release induced by TNF-α and IFN-γ stimulation in HaCaT cells, an epidermal cell model for the itching associated with the skin barrier, we used a IL-6 ELISA kit (Abcam, UK), a CCL17 ELISA kit (R&D Systems, USA), and a CCL22 ELISA kit (R&D Systems, USA). HaCaT cells were seeded at 1×10^6 cells/well in each well of a coated 6-well plate for cell culture and cultured in a DMEM medium containing 10% FBS and 1% antibiotics (penicillin/streptomycin). After 24 hours, the existing medium was removed. The cells were washed with PBS and a DMEM medium without FBS was added thereto. After N-nonyldeoxynojirimycin was treated at various concentrations, the cells were cultured for 1 hour at 37° C. in a 5% CO2 incubator. The cells were treated with TNF-α and IFN-γ at 10 ng/ml each and then incubated for an additional 24 hours. The cell culture mixture was collected in a 1.5 ml tube and then centrifuged at 2,000 rcf. […] After completion of the reaction, the absorbance was measured at 450 nm using a microplate reader. […]

[3] = tested on: IL-6 release in HaCaT cells; test: IL-6 release induced by TNF-α/IFN-γ stimulation in HaCaT cells (ELISA); type: cell-based; settings: various concentrations; TNF-α and IFN-γ 10 ng/ml each, 24 hours; FIG. 4
Description: as §1, §2

[4] = tested on: PGE2 release in RBL-2H3 cells; test: PGE2 release induced by PMA/A23187 stimulation in RBL-2H3 cells (ELISA); type: cell-based; settings: 1 to 40 μM; 50 nM PMA and 1 μM A23187 for 30 minutes; FIG. 3
Description: as §1, with “Mast” for “Epidermal”, “(RBL-2H3” for “(HaCaT”, “ATCC (American Type Culture Collection, USA). RBL-2H3” for “Thermo Fisher Scientific (USA). HaCaT”
In order to evaluate the inhibitory effects against […] (PGE2) release of RBL-2H3 cells according to the treatment of N-nonyldeoxynojirimycin, an enzyme-linked immunosorbent assay (ELISA) was performed using a PGE2 ELISA kit (R&D Systems, USA). Specifically, the cultured RBL-2H3 cells were seeded at 1×10^6 cells/well in each well of a 6-well plate for cell culture and cultured in the same manner as in Example 2. After 24 hours, the existing medium was removed. The cells were washed with PBS and a DMEM medium without FBS was added thereto. After N-nonyldeoxynojirimycin was treated at various concentrations (1 to 40 μM), the cells were cultured for 1 hour at 37° C. in a 5% CO2 incubator. The cells were treated with 50 nM of PMA and 1 μM of A23187 and incubated for an additional 30 minutes. The cell culture mixture was collected in a 1.5 ml tube and then centrifuged at 2,000 rcf. The supernatant thereof was subject to the ELISA analysis using a PGE2 ELISA kit (R&D Systems, USA). After completion of the reaction, the absorbance was measured at 450 nm using a microplate reader.

[5] = tested on: RBL-2H3 cells; test: β-hexosaminidase release induced by PMA/A23187 stimulation (degranulation) in RBL-2H3 cells; type: cell-based
Description: as §1, with “Mast” for “Epidermal”, “(RBL-2H3” for “(HaCaT”, “ATCC (American Type Culture Collection, USA). RBL-2H3” for “Thermo Fisher Scientific (USA). HaCaT”
In order to evaluate the inhibitory effects against degranulation of RBL-2H3 cells, β-hexosaminidase release was measured for various compounds. Specifically, the cultured RBL-2H3 cells were seeded at 2×10^5 cells/well in each well of a 24-well plate for cell culture and cultured in a DMEM medium containing 10% FBS and 1% penicillin/streptomycin. After 24 hours, the existing medium was removed. The cells were washed twice with an extracellular buffer (5 mM KCl, 119 mM NaCl, 25 mM PIPES, 0.4 mM MgCl2, 1 mM CaCl2), 40 mM NaOH, 5.6 mM glucose, 0.1% BSA, pH 7.2) and the medium was replaced with the extracellular buffer. […] After the reaction was terminated by adding a stop solution (0.1 M carbonate buffer, pH 10), the absorbance was measured at 405 nm using a microplate reader.
The β-hexosaminidase release was measured in the same manner as in Example 2, except that N-nonyldeoxynojirimycin was treated at various concentrations (1 to 200 μM).

[6] = tested on: glucosidase; settings: cited from earlier work
[7] = tested on: CCL17 release in HaCaT cells; test: CCL17 release induced by TNF-α/IFN-γ stimulation in HaCaT cells (ELISA); type: cell-based; settings: various concentrations; TNF-α and IFN-γ 10 ng/ml each, 24 hours; FIG. 5
Description: as §1, §2

Compound: CCCCCCCCCN1C[C@H](O)[C@@H](O)[C@H](O)[C@H]1CO [N-nonyldeoxynojirimycin]
- inhibition of hepatic glycogenolysis [1]: known to inhibit hepatic glycogenolysis in vivo
- inhibitory effect against CCL22 release [2]: inhibited the IL-6, CCL17, and CCL22 releases
- inhibitory effect against IL-6 release [3]: inhibited the IL-6, CCL17, and CCL22 releases
- inhibitory effect against PGE2 release [4]: inhibited the PGE2 release in a concentration-dependent manner
- inhibitory effect against β-hexosaminidase release according to treatment concentration ([5]; 1 to 200 μM, PMA/A23187 stimulation, FIG. 2): inhibits the β-hexosaminidase release in a concentration-dependent manner
- inhibitory effect against β-hexosaminidase release ([5]; test material 20 μM, 1 hour, then 50 nM PMA and 1 μM A23187 for 30 minutes, FIG. 1): remarkably inhibited the β-hexosaminidase release compared to other alkaloid analogues
- glucosidase inhibitory activity [6]: has a glucosidase inhibitory activity
- inhibitory effect against CCL17 release [7]: inhibited the IL-6, CCL17, and CCL22 releases
